Article PMC5742115, “Pharmacophore Modeling and in Silico/in Vitro Screening for Human Cytochrome P450 11B1 and Cytochrome P450 11B2 Inhibitors” (Frontiers in Chemistry, 2017)
“And” between values parts separate entries of the source, which are not always exact repeats. Identical values can stand only once.

Tests used:
[1] = target: T1, human CYP11B2 (Homo sapiens, UniProt P19099); assay: CYP11B2 inhibition assay in V79MZh cells; type: cell-based; details: for inhibition at 10 µM: at 10 μM concentration, V79MZh cells; for IC50: human CYP11B2 expressed in hamster V79MZh cells, mean of at least three experiments
T1 construct: expressed in transfected cells; host or cells: hamster V79MZh cells
T1 sequence (P19099 25-503): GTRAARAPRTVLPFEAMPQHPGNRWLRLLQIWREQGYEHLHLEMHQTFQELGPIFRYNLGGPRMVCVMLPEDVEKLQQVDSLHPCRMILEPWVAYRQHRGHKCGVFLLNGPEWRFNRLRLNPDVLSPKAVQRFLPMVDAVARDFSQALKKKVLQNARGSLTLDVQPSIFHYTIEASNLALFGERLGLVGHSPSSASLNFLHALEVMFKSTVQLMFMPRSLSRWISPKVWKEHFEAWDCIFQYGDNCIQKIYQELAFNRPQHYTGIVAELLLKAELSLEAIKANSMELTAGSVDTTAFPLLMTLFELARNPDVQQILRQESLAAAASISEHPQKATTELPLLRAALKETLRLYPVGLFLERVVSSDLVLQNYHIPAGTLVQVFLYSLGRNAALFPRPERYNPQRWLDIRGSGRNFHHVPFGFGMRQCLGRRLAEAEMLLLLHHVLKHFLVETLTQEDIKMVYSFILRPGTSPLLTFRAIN
Protocol: (§1) The selected potential inhibitors were dissolved in DMSO at a concentration of 10 mM to generate stock solutions. Various aliquots were then made from fresh stock solutions and each aliquot was tested only once.
(§2) The selected hits were evaluated for their inhibition of human CYP11B1 and CYP11B2 enzymes expressed in hamster V79MZh cells. Approximately […] V79MZh cells were cultured in 24-well cell culture plates for 24 h. The area of each well was 1.9 cm^2. The cells were exposed to various concentrations of inhibitor solutions. The reactions were started by incubating the cells with [^3H]11-deoxycorticosterone. The incubation time for CYP11B1 cells was 15–60 and 50–120 min for CYP11B2 cells. The reactions were stopped by extracting the supernatant with cold ethyl acetate at 4°C. Samples were mixed (10 min), and centrifuged (12,500 rpm). The organic (upper) layer was separated into fresh Eppendorf tubes and dried. The steroids were re-dissolved in methanol-water (65–35%) and were analyzed by radio-HPLC (Denner et al., [1995a]; Ehmer et al., [2002]).

[2] = target: T2, Human CYP17 (Homo sapiens, UniProt P05093); assay: CYP17 inhibition assay; type: biochemical; details: at 10 μM concentration; for CYP17 inhibition: human CYP17 from Escherichia coli, n.i. = not inhibited
T2 construct: made in house; host or cells: Escherichia coli (5,000 g sediment of the homogenate)
T2 sequence (P05093 1-508): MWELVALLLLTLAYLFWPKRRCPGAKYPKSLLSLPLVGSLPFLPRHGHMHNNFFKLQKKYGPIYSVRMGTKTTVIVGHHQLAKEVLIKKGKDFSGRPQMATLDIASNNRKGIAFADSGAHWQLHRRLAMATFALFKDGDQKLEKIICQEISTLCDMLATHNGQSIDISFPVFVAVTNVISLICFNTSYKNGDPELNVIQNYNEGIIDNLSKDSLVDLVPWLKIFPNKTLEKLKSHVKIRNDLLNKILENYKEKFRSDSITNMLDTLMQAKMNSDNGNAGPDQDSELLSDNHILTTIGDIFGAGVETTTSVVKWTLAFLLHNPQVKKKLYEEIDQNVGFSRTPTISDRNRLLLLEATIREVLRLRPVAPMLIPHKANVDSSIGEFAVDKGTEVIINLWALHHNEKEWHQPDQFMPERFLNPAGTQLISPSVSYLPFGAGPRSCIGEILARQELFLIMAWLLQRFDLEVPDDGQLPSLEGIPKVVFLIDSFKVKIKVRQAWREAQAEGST
Protocol: The inhibition of CYP17 was investigated using the 5,000 g sediment of homogenized Escherichia coli (Ehmer et al., [2000]). Human CYP17 along with NADPH-P450 reductase was used to perform the assay as described previously. The incubation time for the reaction was 30 min at 37°C. The reaction was started by adding [^3H]-progesterone, and was quenched with 1 M HCl. The reaction mixture was extracted twice with ethyl acetate at 4°C in order to avoid impurities. The samples were dried, prepared with methanol, and analyzed with radio-HPLC. DSMO was used as negative control.

[3] = target: T3, human CYP11B1 (Homo sapiens, UniProt P15538); assay: CYP11B1 inhibition assay in V79MZh cells; type: cell-based; details: for inhibition at 10 µM: at 10 μM concentration, V79MZh cells; for IC50: human CYP11B1 expressed in hamster V79MZh cells, mean of at least three experiments
T3 construct: expressed in transfected cells; host or cells: hamster V79MZh cells
T3 sequence (P15538 25-503): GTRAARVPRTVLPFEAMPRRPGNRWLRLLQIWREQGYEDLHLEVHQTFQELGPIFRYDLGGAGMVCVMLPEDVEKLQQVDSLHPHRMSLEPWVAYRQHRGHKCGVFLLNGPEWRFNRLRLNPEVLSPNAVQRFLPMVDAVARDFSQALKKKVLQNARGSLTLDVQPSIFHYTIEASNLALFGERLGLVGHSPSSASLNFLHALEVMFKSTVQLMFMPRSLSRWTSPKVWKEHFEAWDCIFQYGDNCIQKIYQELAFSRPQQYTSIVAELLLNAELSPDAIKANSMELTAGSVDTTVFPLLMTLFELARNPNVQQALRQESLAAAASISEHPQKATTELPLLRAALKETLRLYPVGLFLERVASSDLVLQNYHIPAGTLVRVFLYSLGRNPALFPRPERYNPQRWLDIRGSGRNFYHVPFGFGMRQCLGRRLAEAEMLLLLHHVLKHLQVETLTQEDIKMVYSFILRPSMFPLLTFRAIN
Protocol: as §1, §2

[4] = target: T2, Human CYP17; set-up: method as in Sergejew and Hartmann, 1994; details: reference inhibitor; ref Sergejew and Hartmann, 1994; cited from earlier work

Row | inhibition at 10 µM [1] [%] | IC50 [1] | inhibition at 10 µM [2] [%] | CYP17 inhibition [2] | inhibition at 10 µM [3] [%] | IC50 [3] | selectivity factor for CYP11B1 inhibition over CYP11B2 ([3]; from IC50 values) | SMILES | IC50 [4] [nM]
1 |  | 1100 nM and 1120 nM | ≤ 3 | n.i. | 33 ± 6 |  |  | c1ccc2c(-c3nn4cnnc4s3)cccc2c1 [Compound 12] | 
2 | > 50 | 110 ± 20 nM | ≤ 3 | n.i. | > 50 | 130 ± 20 nM |  | COc1cc(Cl)c(S(=O)(=O)n2ccnc2)cc1Cl [Compound 10] | 
3 |  | 15600 ± 8450 nM |  |  |  | 2500 nM and 2520 nM | 6 | CN(C)C(c1ccccc1)c1nnnn1-c1ccc(Cl)cc1 (centres unmarked) [Compound 11] | 

Further lines, the compound ahead of its results:

Row | SMILES | inhibition at 10 µM [1] [%] | IC50 [1] | inhibition at 10 µM [2] [%] | CYP17 inhibition [2] | inhibition at 10 µM [3] [%] | IC50 [3] | selectivity factor for CYP11B1 inhibition over CYP11B2 ([3]; from IC50 values) | IC50 [4] [nM]
4 | CC(OCc1ccc(F)cc1)n1ccnc1 (centres unmarked) [Compound 9] | > 50 | 80 ± 5 nM | ≤ 3 | n.i. | > 50 | 210 ± 40 nM |  | 
5 | CC(C)CC(=O)Nc1ccc(Cc2ccncc2)cc1 [Compound 8] | > 50 | 2770 ± 480 nM | ≤ 3 | n.i.^e | > 50 | 3040 ± 720 nM |  | 
6 | C[C@]12CC[C@H](O)CC1=CC[C@@H]1[C@@H]2CC[C@]2(C)C(c3cccnc3)=CC[C@@H]12 [Abiraterone] |  |  |  |  |  |  |  | 100
